Laboratory results from article PMC11882969 (Nature Communications, 2025).
Several values for one entry are separate records, joined by “and”; a condition that tells them apart may be missing. Equal entries are not always repeated. Where two headings read alike, the source gives them in different places.

Experiments:
[1] = relative to 100 at 0 min
Method: The reactions were stopped by adding 240 μL 90% acetonitrile containing internal standard with subsequent plasma proteins sedimentation by centrifuging at 5796 g for 5 min. Supernatants were analyzed by the HPLC system coupled with a tandem mass spectrometer. The percentage of the test compounds remaining after incubation in plasma and their half-lives (T1/2) were calculated.

mice = assay: Body temperature by telemetric probe; type: in vivo, mouse; settings: 0.2 mg/kg; for Body temperature (pre-injection = 100): individual animals, sheet Figure7a
Method: Body temperature (BT) was measured using a telemetric probe device (HD-X10; Data Science International). Briefly, under anesthesia, the probe device was placed in the mouse abdomen and a subcutaneous tunnel was created from the neck to the abdominal skin, through which a catheter (connected to the probe) was pulled and then inserted into the left carotid artery. Three weeks later, the implanted mice were singly housed in a cage that was placed on top of the DSI receiver (for probe signal detection). We monitored BT continuously over 2 h, in the following manner: 30 min (for baseline), 30 min after injection of the vehicle and then for 1 h after injection of the compound. Data were acquired using the Ponemah Telemetry acquisition software (DSI) and percent changes were presented relative to each mouse’s baseline.

COC(=O)[C@@](C)(NC(=O)c1cc(C)n(-c2cccc(C(F)(F)F)c2)n1)c1cccs1 [‘1350]
Stability time course, Mean (FigS10e) ([1]; Time 0 min): 100
Stability time course, Mean (FigS10e) ([1]; Time 20 min): 84.0951
Stability time course, Mean (FigS10e) ([1]; Time 40 min): 66.362
Stability time course, Mean (FigS10e) ([1]; Time 60 min): 47.7148
Stability time course, Mean (FigS10e) ([1]; Time 120 min): 13.638
hypothermia (mice; vs baseline and vehicle): increased hypothermia compared to CP-55,940
Body temperature (pre-injection = 100) (mice; time 10): 97.5 and 99.4 (2×)
Body temperature (pre-injection = 100) (mice; time 20): 90.5 and 93.9 and 97
Body temperature (pre-injection = 100) (mice; time 30): 83.8 and 88.4 and 92.4
Body temperature (pre-injection = 100) (mice; time 40): 79.1 and 83.4 and 87.4
Body temperature (pre-injection = 100) (mice; time 50): 78.7 and 80.2 and 84.2
Body temperature (pre-injection = 100) (mice; time 60): 79.9 and 78.4 and 83.6
Body temperature (pre-injection = 100) (mice; time 70): 81.4 and 78.1 and 83.5
Body temperature (pre-injection = 100) (mice; time 80): 82.4 and 78.5 and 83.9
Body temperature (pre-injection = 100) (mice; time 90): 82.1 and 79.5 and 83.5
